Experiment [1] concerns histamine-induced congestion. Put plainly: Intranasal challenge method: whole body plethysmography. The format is in vivo, guinea pigs. The note with it: for inhibition of the response to histamine challenge (PenH AUC): dosed intranasally at 1 mg/ml either 1 hr or 24 hr before histamine challenge. As to the method:
Female Dunkin-Hartley guinea pigs 150-250 g are sensitised twice daily for 5 days (week 1) with ovalbumin (OVA) and aluminium hydroxide (Al(OH)3 or Alum) in physiological saline, 25 μl/nostril. Solution is made up at 20 μg/ml OVA, 180 mg/ml Alum. During weeks 2 and 3 animals receive 25 μl/nostril of OVA (5 mg/ml) once daily. During Week 4 guinea pigs will be entered into study but are continually sensitized as per weeks 2 and 3 until the day before dosing with compound or vehicle.
Pretreatment with test compound is performed at various times prior to histamine challenge. Efficacy dose-response curves are determined 1 hr and/or 3 hr after dosing whereas duration of action may be studied up to 7 days post dose. Test compounds are formulated as solutions in 0.9% sterile saline or suspensions in 0.9% sterile saline/tween80.
Guinea pigs were anaesthetised with isoflurane (5%, 2-31/min O2), placed in a supine position, and 25 μl of test compound or vehicle dosed into each nostril using a Gilson pipette. After dosing, animals remain supine for at least 30 seconds during recovery from anaesthesia.
At 30 minutes before the time of histamine challenge, guinea pigs are dosed with atropine sulphate (Sigma A0257, dissolved in saline), 1 mg/kg i.p. Animals are then placed into whole body plethysmograph systems (Buxco® Electronics) where the parameter PenH area under curve (AUC) is recorded as outlined in […], E., SCHWARZE, J., TAKEDA, K., OSHIBA, A., LARSEN, L., IRVIN, C. G. & GELFAND, E. W. (1997) Noninvasive measurement of airway responsiveness in allergic mice using barometric plethysmography. Am. J. Respir. Crit. Care Med. 156, 766-775.
Hamelmann et al. A 10 minute baseline AUC is recorded and if this value is over 1000, the animals are excluded.
After the stipulated pre-dose time has been reached, guinea pigs are re-anaesthetised with isoflurane and dosed with either 10 mM or 15 mM histamine or phosphate-buffered saline (PBS), (25 μl per nostril). On recovery from anaesthesia animals are returned to the individual plethysmograph chambers and 4×10 min consecutive PenH AUC recordings are made. These recordings are summed to give a cumulative AUC over 40 mins post histamine challenge for each animal. Data are analysed using ANOVA with post-hoc Fishers LSD test (general linear models, Statistica®) and finally Hochberg adjustment. Inhibition of histamine-induced congestion is determined by statistically significant differences between the mean responses of compound pre-treated groups compared to the vehicle pre-treated, histamine-challenged group.

Experiment [2] has as its target T1, human H1 receptor (Homo sapiens, UniProt P35367).
T1 construct: expressed in transfected cells
Nature of the experiment: Histamine H1 functional antagonist assay: determination of functional pKi values (FLIPR). The format is cell-based. Conditions: CHO cells expressing human H1 receptor, histamine at EC80, FLIPR, read-out: average pKi (pKb) at H1 (converted). The method, then:
(§1) 1. Generation of Histamine H1 Cell Line The human H1 receptor is cloned using known procedures described in the literature [Biochem. Biophys. Res. Commun., 201(2):894 (1994)]. Chinese hamster ovary (CHO) cells stably expressing the human H1 receptor are generated according to known procedures described in the literature [Br. J. Pharmacol., 117(6):1071 (1996)].
The histamine H1 cell line is seeded into non-coated black-walled clear bottom 384-well tissue culture plates in alpha minimum essential medium (Gibco/Invitrogen, cat no. 22561-021), supplemented with 10% dialysed foetal calf serum (Gibco/Invitrogen cat no. 12480-021) and 2 mM L-glutamine (Gibco/Invitrogen cat no 25030-024) and is maintained overnight at 5% CO2, 37° C.
Excess medium is removed from each well to leave 10 μl. 30 μl loading dye (250 μM Brilliant Black, 2 μM Fluo-4 diluted in Tyrodes buffer+probenecid (145 mM NaCl, 2.5 mM KCl, 10 mM HEPES, 10 mM D-glucose, 1.2 mM MgCl2, 1.5 mM CaCl2, 2.5 mM probenecid, pH adjusted to 7.40 with NaOH 1.0 M)) is added to each well and the plates are incubated for 60 min at 5% CO2, 37° C.
10 μl of test compound, diluted to the required concentration in Tyrodes buffer+probenecid (or 10 μl Tyrodes buffer+probenecid as a control) is added to each well and the plate is incubated for 30 min at 37° C., 5% CO2. The plates are then placed into a FLIPR™ (Molecular. Devices, UK) to monitor cell fluorescence (λex=488 nm, λEM=540 nm) in the manner described in Sullivan et al., (In: Lambert DG (ed.), Calcium Signaling Protocols, New Jersey: Humana Press, 1999, 125-136) before and after the addition of […] at a concentration that results in the final assay concentration of histamine being EC80.
Functional antagonism is indicated by a suppression of histamine induced increase in fluorescence, as measured by the FLIPR™ system (Molecular Devices). By means of concentration effect curves, functional affinities are determined using standard pharmacological mathematical analysis.

The target in experiment [3] is T1, human H1 receptor. Put plainly: Histamine H1 functional antagonist assay: determination of antagonist duration (washout, FLIPR). It is filed as cell-based. Conditions: at one or more time points after washout. The method, then:
as §1
To determine the antagonist duration, cells are cultured overnight in non-coated black-walled clear bottom 96-well tissue culture plates, are washed with PBS and are incubated with a concentration of antagonist chosen to give an approximate DR in the range 30-300. Following the 30 min antagonist incubation period, the cells are washed two or three times with 200 μl of PBS and then 100 μl Tyrodes buffer is added to each well to initiate antagonist dissociation. Following incubation for predetermined times, typically 30-270 min at 37° C., the cells are then washed again with 200 μl PBS and are incubated with 100 Tyrodes buffer containing Brilliant Black, probenecid and Fluo-4 for 45 min at 37° C., as described above. After this period, the cells are challenged with histamine in the FLIPR™ as described above. The dose ratio at each time point is used to determine the fractional H1 receptor occupancy by the following equation: fractional receptor occupancy=(DR-1)/DR. The decrease in receptor occupancy over time approximates to a straight line and is analysed by linear regression. The slope of this straight line fit is used as an index of the dissociation rate of the antagonist. The dose ratios for antagonist treated cells and for antagonist treated and washed cells at each time point are used to calculate a relative dose ratio (rel DR) which is also used as an index of antagonist duration. Antagonists with long duration of action produce rel DR values close to 1, and antagonists with short duration of action produce rel DR values that approaches the dose ratio value obtained for antagonist treatment alone.

T1 sequence (P35367 whole entry): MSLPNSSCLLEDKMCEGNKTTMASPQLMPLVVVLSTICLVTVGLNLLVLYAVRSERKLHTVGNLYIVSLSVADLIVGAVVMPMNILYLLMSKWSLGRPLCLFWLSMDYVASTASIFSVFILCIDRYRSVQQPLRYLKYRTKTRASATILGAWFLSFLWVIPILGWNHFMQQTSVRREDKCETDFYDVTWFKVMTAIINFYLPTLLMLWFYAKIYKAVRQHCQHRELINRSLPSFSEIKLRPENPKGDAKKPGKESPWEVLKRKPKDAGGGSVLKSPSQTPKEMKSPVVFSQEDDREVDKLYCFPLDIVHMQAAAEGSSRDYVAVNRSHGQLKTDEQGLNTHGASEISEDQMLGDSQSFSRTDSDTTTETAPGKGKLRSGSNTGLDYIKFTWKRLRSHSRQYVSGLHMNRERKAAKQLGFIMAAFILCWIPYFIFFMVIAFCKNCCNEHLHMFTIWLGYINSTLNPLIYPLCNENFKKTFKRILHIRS

For `COCCCC(=O)NCCN1CCC[C@@H]1Cn1nc(Cc2ccc(Cl)cc2)c2ccccc2c1=O.Cl` [Example 34a, N-[2-((2R)-2-{[4-[(4-Chlorophenyl)methyl]-1-oxo-2(1H)-phthalazinyl]methyl}-1-pyrrolidinyl)ethyl]-4-(methyloxy)butanamide, hydrochloride salt], the “inhibition of the response to histamine challenge (PenH AUC)” value in experiment [1] is reported as “significantly (p<0.05) inhibited the response at both timepoints”.

Turning to `CN1CCCC(n2nc(Cc3ccc(Cl)cc3)c3ccccc3c2=O)CC1` (stereo not drawn) [azelastine, reference compound], in experiment [1], the “inhibition of the response to histamine challenge (PenH AUC)” value was “failed to show a similar duration of action”.

`COCCCC(=O)NCCN1CCC[C@@H]1Cn1nc(Cc2ccc(Cl)cc2)c2ccccc2c1=O.O=C(O)C(F)(F)F` [Example 34c, N-[2-((2R)-2-{[4-[(4-Chlorophenyl)methyl]-1-oxo-2(1H)-phthalazinyl]methyl}-1-pyrrolidinyl)ethyl]-4-(methyloxy)butanamide, trifluoroacetate salt]: the “inhibition of the response to histamine challenge (PenH AUC)” value in experiment [1] is reported as “significantly (p<0.05) inhibited the response at both timepoints”.

For `COCCCC(=O)NCCN1CCC[C@@H]1Cn1nc(Cc2ccc(Cl)cc2)c2ccccc2c1=O` [Example 34, N-[2-((2R)-2-{[4-[(4-Chlorophenyl)methyl]-1-oxo-2(1H)-phthalazinyl]methyl}-1-pyrrolidinyl)ethyl]-4-(methyloxy)butanamide], in experiment [1] (another experiment, dosed intranasally at 1 mg/ml and at 10 mg/ml 3 hr before histamine challenge), the “inhibition of the response to histamine challenge (PenH AUC), 3 hr timepoint” value is listed as “significantly (p<0.05) inhibited the response at the 3 hr timepoint”. Besides, in experiment [1] (another experiment, dosed intranasally at 1 mg/ml and at 10 mg/ml 24 hr before histamine challenge), the “inhibition of the response to histamine challenge (PenH AUC), 24 hr timepoint” value is “not the 24 hr timepoint”. Besides, the “inhibition of the response to histamine challenge (PenH AUC)” value in experiment [1] is on record as “significantly (p<0.05) inhibited the response at both timepoints”.

As to `O=C(CC(F)(F)F)NCCN1CCC[C@@H]1Cn1nc(Cc2ccc(Cl)cc2)c2ccccc2c1=O.O=C(O)C(F)(F)F` [Example 36b, N-[2-((2R)-2-{[4-[(4-chlorophenyl)methyl]-1-oxo-2(1H)-phthalazinyl]methyl}-1-pyrrolidinyl)ethyl]-3,3,3-trifluoropropanamide, trifluoroacetate], the Ki on human H1 receptor [2] is below 31.6 nM. Besides, the “duration of action compared with azelastine in the histamine H1 functional antagonist assay” value on human H1 receptor [3] is “longer duration of action than azelastine”. The “inhibition of the response to histamine challenge (PenH AUC)” value in experiment [1] is “significantly (p<0.05) inhibited the response at both timepoints”.

The values are drawn from patent publication US20100184770A1, “COMPOUNDS” (Glaxo Group Limited, priority 2006, published 2010).
